From patent publication US8906852B2 (MethylGene Inc., priority 2010, dated 2014)

Target: T1, VEGFR/KDR (Homo sapiens, UniProt P35968)
T1 construct: made in house; host or cells: Sf9 cells (Spodoptera frugiperda), baculovirus
Test: VEGFR/KDR kinase inhibition, DELFIA assay
Type: biochemical
Settings: ATP 0.6 uM (2x Km), enzyme 5 nM
Experimental: Inhibition of VEGFR/KDR is measured in a DELFIA™ assay (Perkin Elmer). The substrate poly(Glu4, Tyr) is immobilized onto black high-binding polystyrene 96-well plates. The coated plates are washed and stored at 4° C. During the assay, the enzyme is pre-incubated with inhibitor and Mg-ATP on ice in polypropylene 96-well plates for 4 minutes, and then transferred to the coated plates. The subsequent kinase reaction takes place at 30° C. for 10-30 minutes. ATP concentrations in the assay are 0.6 uM for VEGFR/KDR (2× the Km). Enzyme concentration is 5 nM. After incubation, the kinase reactions are quenched with EDTA and the plates are washed. Phosphorylated product is detected by incubation with Europium-labeled anti-phosphotyrosine MoAb. After washing the plates, bound MoAb is detected by time-resolved fluorescence in a Gemini SpectraMax reader (Molecular Devices). Compounds are evaluated over a range of concentrations, and IC50 values (concentration of compounds giving 50% inhibition of enzymatic activity) are determined.

T1 sequence (P35968 806-1356): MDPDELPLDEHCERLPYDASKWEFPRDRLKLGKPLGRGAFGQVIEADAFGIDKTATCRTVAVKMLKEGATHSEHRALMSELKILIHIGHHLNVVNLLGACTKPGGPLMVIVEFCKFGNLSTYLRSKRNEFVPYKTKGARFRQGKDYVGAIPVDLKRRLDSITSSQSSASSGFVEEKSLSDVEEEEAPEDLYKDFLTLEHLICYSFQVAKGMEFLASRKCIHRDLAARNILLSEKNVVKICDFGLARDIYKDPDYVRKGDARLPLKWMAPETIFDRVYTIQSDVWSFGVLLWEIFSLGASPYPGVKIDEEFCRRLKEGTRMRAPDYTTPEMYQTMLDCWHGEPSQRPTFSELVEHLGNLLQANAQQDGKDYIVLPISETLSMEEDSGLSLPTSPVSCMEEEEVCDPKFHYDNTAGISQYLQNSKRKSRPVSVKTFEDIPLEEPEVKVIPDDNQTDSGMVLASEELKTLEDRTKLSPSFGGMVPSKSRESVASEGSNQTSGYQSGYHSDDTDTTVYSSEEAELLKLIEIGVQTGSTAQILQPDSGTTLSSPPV

`COCCN(Cc1ccc(-c2cc3nccc(Oc4ccc(NC(=O)NC5CC5)cc4F)c3s2)nc1)C(=O)CNC(=O)[C@@H](N)C(C)C` [Compound 92, (S)-2-amino-N-(2-(((6-(7-(4-(3-cyclopropylureido)-2-fluorophenoxy)thieno[3,2-b]pyridin-2-yl)pyridin-3-yl)methyl)(2-methoxyethyl)amino)-2-oxoethyl)-3-methylbutanamide] and `COCCN(Cc1ccc(-c2cc3nccc(Oc4ccc(NC(=O)NC5CC5)cc4F)c3s2)nc1)C(=O)CNC(=O)CN` [Compound 92-A, 2-(2-aminoacetamido)-N-((6-(7-(4-(3-cyclopropylureido)-2-fluorophenoxy)thieno[3,2-b]pyridin-2-yl)pyridin-3-yl)methyl)-N-(2-methoxyethyl)acetamide] cannot be ordered by IC50: < 50 nM for the first, < 50 nM for the second.

`COCCN(Cc1ccc(-c2cc3nccc(Oc4ccc(NC(=O)NC5CC5)cc4F)c3s2)nc1)C(=O)[C@@H](NC(=O)CN)C(C)C` [Compound 93, (S)-2-(2-aminoacetamido)-N-((6-(7-(4-(3-cyclopropylureido)-2-fluorophenoxy)-thieno[3,2-b]pyridin-2-yl)pyridin-3-yl)methyl)-N-(2-methoxyethyl)-3-methylbutanamide] and `COCCN(Cc1ccc(-c2cc3nccc(Oc4ccc(NC(=O)NC5CC5)cc4F)c3s2)cc1)C(C)=O` [Compound 114, N-(4-(7-(4-(3-cyclopropylureido)-2-fluorophenoxy)thieno[3,2-b]pyridin-2-yl)benzyl)-N-(2-methoxyethyl)acetamide] cannot be ordered by IC50: < 50 nM for the first, < 50 nM for the second.

`CS(=O)(=O)c1cccc(NC(=O)Nc2ccc(Oc3ccnc4cc(-c5ccc(CN6CCCC6=O)cn5)sc34)c(F)c2)c1` [Compound 105] and `NC(=O)c1cccc(NC(=O)Nc2ccc(Oc3ccnc4cc(-c5ccc(CN6CCCC6=O)cn5)sc34)c(F)c2)c1` [Compound 106, 3-(3-(3-fluoro-4-(2-(5-((2-oxopyrrolidin-1-yl)methyl)pyridin-2-yl)thieno[3,2-b]pyridin-7-yloxy)phenyl)ureido)benzamide] cannot be ordered by IC50: < 50 nM for the first, < 50 nM for the second.

`N[C@H]1CCN(Cc2ccc(-c3cc4nccc(Oc5ccc(NC(=O)NC6CC6)cc5F)c4s3)nc2)C1=O` [Compound 108, (S)-1-(4-(2-(5-((3-amino-2-oxopyrrolidin-1-yl)methyl)pyridin-2-yl)thieno[3,2-b]pyridin-7-yloxy)-3-fluorophenyl)-3-cyclopropylurea] and `N[C@@H]1CCN(Cc2ccc(-c3cc4nccc(Oc5ccc(NC(=O)NC6CC6)cc5F)c4s3)nc2)C1=O` [Compound 109, (R)-1-(4-(2-(5-((3-amino-2-oxopyrrolidin-1-yl)methyl)pyridin-2-yl)thieno[3,2-b]pyridin-7-yloxy)-3-fluorophenyl)-3-cyclopropylurea] cannot be ordered by IC50: < 50 nM for the first, < 50 nM for the second.

`O=C(Nc1ccc(Oc2ccnc3cc(-c4ccc(CN5CC[C@H](O)C5=O)cn4)sc23)c(F)c1)NC1CC1` [Compound 110, (S)-1-cyclopropyl-3-(3-fluoro-4-(2-(5-((3-hydroxy-2-oxopyrrolidin-1-yl)methyl)pyridin-2-yl)thieno[3,2-b]pyridin-7-yloxy)phenyl)urea] and `O=C(Nc1ccc(Oc2ccnc3cc(-c4ccc(CN5CCNC5=O)cn4)sc23)c(F)c1)NC1CC1` [Compound 143, 1-cyclopropyl-3-(3-fluoro-4-(2-(5-((2-oxoimidazolidin-1-yl)methyl)pyridin-2-yl)thieno[3,2-b]pyridin-7-yloxy)phenyl)urea] cannot be ordered by IC50: < 50 nM for the first, < 50 nM for the second.

`COCCNCc1ccc(-c2cc3nccc(Oc4ccc(NC(=O)NC5CC5)cc4F)c3s2)cc1` [Compound 113] and `COCCN(Cc1ccc(-c2cc3nccc(Oc4ccc(NC(=O)NC5CC5)cc4F)c3s2)cc1)C(=O)CO` [Compound 115-A, N-(4-(7-(4-(3-cyclopropylureido)-2-fluorophenoxy)thieno[3,2-b]pyridin-2-yl)benzyl)-2-hydroxy-N-(2-methoxyethyl)acetamide] cannot be ordered by IC50: < 50 nM for the first, < 50 nM for the second.

`COCCOCC(=O)N(CCOC)Cc1ccc(-c2cc3nccc(Oc4ccc(NC(=O)NC5CC5)cc4F)c3s2)cc1` [Compound 115, N-(4-(7-(4-(3-cyclopropylureido)-2-fluorophenoxy)thieno[3,2-b]pyridin-2-yl)benzyl)-2-(2-methoxyethoxy)-N-(2-methoxyethyl)acetamide] and `O=C(Nc1ccc(Oc2ccnc3cc(-c4ccc(C(=O)N5CCCC5)cc4)sc23)c(F)c1)NC1CC1` [Compound 129, 1-cyclopropyl-3-(3-fluoro-4-(2-(4-(pyrrolidine-1-carbonyl)phenyl)thieno[3,2-b]pyridin-7-yloxy)phenyl)urea] cannot be ordered by IC50: < 50 nM for the first, < 50 nM for the second.

`COCCN(Cc1ccc(-c2cc3nccc(Oc4ccc(NC(=O)NC5CC5)c(Cl)c4)c3s2)nc1)C(C)=O` [Compound 116, N-((6-(7-(3-chloro-4-(3-cyclopropylureido)phenoxy)thieno[3,2-b]pyridin-2-yl)pyridin-3-yl)methyl)-N-(2-methoxyethyl)acetamide] and `COCCN(Cc1cnc(-c2cc3nccc(Oc4ccc(NC(=O)NC5CC5)cc4F)c3s2)n1C)C(=O)NC1CC1` [Compound 161, 1-((2-(7-(2-fluoro-4-cyclopropylaminocarbonylaminophenoxy)thieno[3,2-b]pyridin-2-yl)-1-methyl-1H-imidazol-5-yl)methyl)-3-cyclopropyl-1-(2-methoxyethyl)urea] cannot be ordered by IC50: < 50 nM for the first, < 50 nM for the second.

First: COCCN(Cc1cnc(-c2cc3nccc(Oc4ccc(NC(=O)Nc5ccc(F)cc5F)cc4F)c3s2)n1C)C(C)=O [Compound 117, N-((2-(7-(4-(3-(2,4-difluorophenyl)ureido)-2-fluorophenoxy)thieno[3,2-b]pyridin-2-yl)-1-methyl-1H-imidazol-5-yl)methyl)-N-(2-methoxyethyl)acetamide]
Second: COCCN(Cc1cnc(-c2cc3nccc(Oc4ccc(NC(=O)NC(C)C)cc4F)c3s2)n1C)C(C)=O [Compound 117-A, N-((2-(7-(2-fluoro-4-(3-isopropylureido)phenoxy)thieno[3,2-b]-pyridin-2-yl)-1-methyl-1H-imidazol-5-yl)methyl)-N-(2-methoxyethyl)acetamide]
The IC50 of the first is lower: < 50 nM for the first, 50 to 100 nM for the second.

`O=C(Nc1ccc(Oc2ccnc3cc(C#CCN4CCOCC4)sc23)c(F)c1)Nc1ccc(F)cc1F` [Compound 119, 1-(2,4-difluorophenyl)-3-(3-fluoro-4-(2-(3-morpholinoprop-1-ynyl)thieno[3,2-b]pyridin-7-yloxy)phenyl)urea] and `O=C(Nc1ccccc1)Nc1ccc(Oc2ccnc3cc(C#CCN4CCOCC4)sc23)c(F)c1` [Compound 120, 1-(3-fluoro-4-(2-(3-morpholinoprop-1-ynyl)thieno[3,2-b]pyridin-7-yloxy)phenyl)-3-phenylurea] fall in the same range of IC50: 100 to 250 nM for the first, 100 to 250 nM for the second.

`O=C(Nc1ccc(Oc2ccnc3cc(-c4ccc(CN5CCOCC5=O)cn4)sc23)c(F)c1)NC1CC1` [Compound 123, 1-cyclopropyl-3-(3-fluoro-4-(2-(5-((3-oxomorpholino)methyl)pyridin-2-yl)thieno[3,2-b]pyridin-7-yloxy)phenyl)urea] and `CN1CCN(Cc2ccc(-c3cc4nccc(Oc5ccc(NC(=O)NC6CC6)cc5F)c4s3)nc2)C1=O` [Compound 141, 1-cyclopropyl-3-(3-fluoro-4-(2-(5-((3-methyl-2-oxoimidazolidin-1-yl)methyl)pyridin-2-yl)thieno[3,2-b]pyridin-7-yloxy)phenyl)urea] cannot be ordered by IC50: < 50 nM for the first, < 50 nM for the second.

`O=C(Nc1ccc(Oc2ccnc3cc(-c4ccc(C(=O)N5CCCC5)cc4)sc23)c(F)c1)Nc1ccc(F)cc1F` [Compound 127, 1-(2,4-difluorophenyl)-3-(3-fluoro-4-(2-(4-(pyrrolidine-1-carbonyl)phenyl)thieno[3,2-b]pyridin-7-yloxy)phenyl)urea] and `CS(=O)(=O)c1cccc(NC(=O)Nc2ccc(Oc3ccnc4cc(-c5ccc(C(=O)N6CCCC6)cc5)sc34)c(F)c2)c1` [Compound 130, 1-(3-fluoro-4-(2-(4-(pyrrolidine-1-carbonyl)phenyl)thieno[3,2-b]pyridin-7-yloxy)phenyl)-3-(3-(methylsulfonyl)phenyl)urea] cannot be ordered by IC50: < 50 nM for the first, < 50 nM for the second.

`CC(C)NC(=O)Nc1ccc(Oc2ccnc3cc(-c4ccc(C(=O)N5CCCC5)cc4)sc23)c(F)c1` [Compound 128, 1-(3-fluoro-4-(2-(4-(pyrrolidine-1-carbonyl)phenyl)thieno[3,2-b]pyridin-7-yloxy)phenyl)-3-isopropylurea] and `CCNC(=O)N(CCOC)Cc1cnc(-c2cc3nccc(Oc4ccc(NC(=O)NC(C)C)cc4F)c3s2)n1C` [Compound 161-A, 1-((2-(7-(4-isopropylaminocarbonylamino-2-fluorophenoxy)thieno[3,2-b]pyridin-2-yl)-1-methyl-1H-imidazol-5-yl)methyl)-3-ethyl-1-(2-methoxyethyl)urea] cannot be ordered by IC50: < 50 nM for the first, < 50 nM for the second.

`O=C(Nc1ccc(Oc2ccnc3cc(-c4ccc(CN5C(=O)CCC5=O)cn4)sc23)c(F)c1)NC1CC1` [Compound 140, 1-cyclopropyl-3-(4-(2-(5-((2,5-dioxopyrrolidin-1-yl)methyl)pyridin-2-yl)thieno[3,2-b]pyridin-7-yloxy)-3-fluorophenyl)urea] and `O=C(Nc1ccc(Oc2ccnc3cc(-c4cnn(CCOC(=O)NC5CC5)c4)sc23)c(F)c1)NC1CC1` [Compound 157, 2-(4-(7-(4-(3-cyclopropylureido)-2-fluorophenoxy)thieno[3,2-b]pyridin-2-yl)-1H-pyrazol-1-yl)ethyl cyclopropylcarbamate] cannot be ordered by IC50: < 50 nM for the first, < 50 nM for the second.

With `O=C(Nc1ccc(Oc2ccnc3cc(-c4cnn(CCN5CCOCC5)c4)sc23)c(F)c1)NC1CC1` [Compound 155, 1-cyclopropyl-3-(3-fluoro-4-(2-(1-(2-morpholinoethyl)-1H-pyrazol-4-yl)thieno[3,2-b]pyridin-7-yloxy)phenyl)urea] the IC50 was < 50 nM.
